Test results as given in patent US20260374739A1, “SMALL MOLECULAR WEIGHT CHEMICAL COMPOUND TO ANTAGONIZE EPH-EPHRIN TETRAMERIZATION AND INHIBIT BIDIRECTIONAL SIGNALING” (THE BOARD OF REGENTS OF THE UNIVERSITY OF TEXAS SYSTEM, priority 2022, published 2026).
Where “and” joins values, the source holds several entries; their conditions need not be identical. Equal entries are not always repeated. Where two headings read alike, the source gives them in different places. Marks after values point to notes of the source that are not given here.

Legend:
EphrinB2-EphB1 = target: T1, EphrinB2-EphB1 (Homo sapiens, UniProt P54762); experiment: Octet 80 sec association/500 sec dissociation, immobilized human EphrinB2-Fc binding to soluble human EphB1-His; settings: for EphB1 Inhibition Percent, Inhibition of Association ONLY: at 3.2 μM and 80 seconds; for EphB1 Inhibition Percent, Inhibition of Association ONLY / EphB1 Inhibition Percent, Inhibition of Association-Dissociation: immobilized human EphrinB2, 25 nM soluble human EphB1; for EphB1 Inhibition Percent, Inhibition of Association-Dissociation: at 3.2 μM and 580 seconds; for inhibition at 3.2 µM: EphB1, 25 nM EphB1, 3.2 μM compound, A20-I as max control, 0* = less than 0, no inhibition
T1 construct: soluble human EphB1-His, EphB2-His, and EphB4-His ectodomains; commercially available human EphrinB1-Fc (EB1), EphrinB2-Fc (EB2), and EphrinB3-Fc (EB3) ectodomain proteins; purchased
T1 sequence (P54762 18-540 limits assumed): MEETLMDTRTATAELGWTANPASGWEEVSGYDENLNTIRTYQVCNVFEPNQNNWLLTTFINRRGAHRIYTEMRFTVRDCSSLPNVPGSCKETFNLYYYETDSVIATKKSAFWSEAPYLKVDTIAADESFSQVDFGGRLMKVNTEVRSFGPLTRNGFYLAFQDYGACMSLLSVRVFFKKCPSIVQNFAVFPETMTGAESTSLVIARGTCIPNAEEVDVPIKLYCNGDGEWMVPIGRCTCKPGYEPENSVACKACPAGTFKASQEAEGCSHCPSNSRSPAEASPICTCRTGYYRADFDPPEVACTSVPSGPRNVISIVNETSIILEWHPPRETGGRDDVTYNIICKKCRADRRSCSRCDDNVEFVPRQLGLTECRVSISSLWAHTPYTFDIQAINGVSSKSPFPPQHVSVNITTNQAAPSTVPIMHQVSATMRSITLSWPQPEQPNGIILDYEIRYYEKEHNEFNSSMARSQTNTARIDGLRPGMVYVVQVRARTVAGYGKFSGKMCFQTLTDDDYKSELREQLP
In short: (§1)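 EphrinB2-Fc captured on AHC biosensors, then soluble His-tagged EphB ectodomain (25 nM for % inhibition runs) associated 80 s and dissociated 500 s in PBS, 0.05% Tween-20, 1% DMSO ± compound. Compounds tested at 0.1–3.2 μM with a 10 μM max standard; IC50 from AUC of full traces or at 75 s and 135 s.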

EphrinB2-EphB2 [1] = target: T2, EphrinB2-EphB2 (Homo sapiens, UniProt P29323); experiment: Octet tetramerization inhibition, immobilized human EphrinB2 binding to 50 nM soluble human EphB2; settings: for disruption of unsurmountable tetramer: 0.8-3.2 μM
T2 construct: soluble human EphB1-His, EphB2-His, and EphB4-His ectodomains; commercially available human EphrinB1-Fc (EB1), EphrinB2-Fc (EB2), and EphrinB3-Fc (EB3) ectodomain proteins; purchased
T2 sequence (P29323 19-543 limits assumed): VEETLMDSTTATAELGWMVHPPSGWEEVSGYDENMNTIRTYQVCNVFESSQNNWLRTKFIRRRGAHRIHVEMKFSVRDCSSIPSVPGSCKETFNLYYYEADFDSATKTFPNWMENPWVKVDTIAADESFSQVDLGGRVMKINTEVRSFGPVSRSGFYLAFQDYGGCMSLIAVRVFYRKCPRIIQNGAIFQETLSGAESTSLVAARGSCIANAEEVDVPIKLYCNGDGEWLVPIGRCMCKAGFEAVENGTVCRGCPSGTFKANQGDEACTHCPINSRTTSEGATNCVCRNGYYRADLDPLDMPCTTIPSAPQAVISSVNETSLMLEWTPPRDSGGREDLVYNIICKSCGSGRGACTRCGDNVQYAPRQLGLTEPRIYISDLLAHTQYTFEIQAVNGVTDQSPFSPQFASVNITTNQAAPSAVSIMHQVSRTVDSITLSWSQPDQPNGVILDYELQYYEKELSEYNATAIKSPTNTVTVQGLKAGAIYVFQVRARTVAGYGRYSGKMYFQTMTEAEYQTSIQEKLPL

EphrinB2-EphB2 [2] = target: T2, EphrinB2-EphB2; experiment: Octet 80 sec association/500 sec dissociation, immobilized human EphrinB2-Fc binding to soluble human EphB2-His; settings: for EphB2 Inhibition Percent, Inhibition of Association ONLY: at 3.2 μM and 80 seconds; for EphB2 Inhibition Percent, Inhibition of Association ONLY / EphB2 Inhibition Percent, Inhibition of Association-Dissociation: immobilized human EphrinB2, 25 nM soluble human EphB2; for EphB2 Inhibition Percent, Inhibition of Association-Dissociation: at 3.2 μM and 580 seconds; for inhibition at 3.2 µM: EphB2, 25 nM EphB2, 3.2 μM compound, A20-I as max control, 0* = less than 0, no inhibition; for inhibition of EphrinB2-EphB interactions: 3.2 μM, EphB1, EphB2 and EphB4
In short: as §1

[3] = Absolute AUC/IC50, Table A, EphrinB2-EphB2
[4] = Absolute Association IC50 (300 sec), Table A, EphrinB2-EphB2
[5] = Relative AUC/IC50, Table A, EphrinB2-EphB2, compound 7: association only
[6] = Relative Dissociation IC50 (450 sec), Table A, EphrinB2-EphB2
[7] = read-out: % Inhibition: Association + Dissociation (160 sec)
[8] = read-out: % Inhibition: Association ONLY (80 sec)
[9] = Relative Association IC50 (300 sec), Table A, EphrinB2-EphB2
[10] = Absolute Dissociation IC50 (450 sec), Table A, EphrinB2-EphB2
[11] = tetramerization inhibitor IC50 (relative), association step, surmountable tetramer

Row | EphB1 Inhibition Percent, Inhibition of Association ONLY (EphrinB2-EphB1) | EphB1 Inhibition Percent, Inhibition of Association-Dissociation (EphrinB2-EphB1) | IC50 (EphrinB2-EphB2 [1]; [4]) | IC50 (EphrinB2-EphB2 [1]; [5]) | EphB2 Inhibition Percent, Inhibition of Association ONLY (EphrinB2-EphB2 [2]) | EphB2 Inhibition Percent, Inhibition of Association-Dissociation (EphrinB2-EphB2 [2]) | inhibition of EphrinB2-EphB interactions (EphrinB2-EphB2 [2]) | Structure (SMILES) | IC50 (EphrinB2-EphB2 [1]; [3]) | IC50 (EphrinB2-EphB2 [1]; [6]) | inhibition at 3.2 µM (EphrinB2-EphB1; [7]) [%] | inhibition at 3.2 µM (EphrinB2-EphB1; [8]) [%] | IC50 (EphrinB2-EphB2 [1]; [9]) | inhibition at 3.2 µM (EphrinB2-EphB2 [2]; [7]) [%] | inhibition at 3.2 µM (EphrinB2-EphB2 [2]; [8]) [%] | IC50 (EphrinB2-EphB2 [1]; [10]) | tetramerization inhibitor activity (EphrinB2-EphB2 [1]) | disruption of unsurmountable tetramer (EphrinB2-EphB2 [1]) | IC50 (EphrinB2-EphB2 [1]; [11]) [nM] | disruption of unsurmountable tetramer (EphrinB2-EphB2 [1]; listed as 3511-1) | disruption of unsurmountable tetramer (EphrinB2-EphB2 [1]; listed as 3511-I)
1 | 24.7% and 39.1% | 38.6% and 53.1% | 600 nM | 290 nM and 260 nM | 57.7% and 62.5% | 72.9% and 78.7% |  | Oc1c(Br)cc(CN2CCN(c3ccc(Br)cc3)CC2)c2cccnc12 [Compound 30, 7-bromo-5-((4-(4-bromophenyl)piperazin-1-ium-1-yl)methyl)-8-hydroxyquinolin-1-ium chloride] | 260 nM | 340 nM |  |  |  |  |  |  |  |  |  |  | 
2 |  |  | 2820 nM and 3020 nM | 2140 nM |  |  |  | Oc1ccc(CN2CCN(Cc3ccccc3)CC2)c2cccnc12 [Compound 41, 5-((4-benzylpiperazin-1-yl)methyl)quinolin-8-ol] | 2090 nM and > 3200 nM | 2240 nM and 2000 nM | 27.7 | 18.7 | 1820 nM | 25.3 | 9.1 | 3020 nM and 3000 nM |  |  |  |  | 
3 | 17.9% | 14.7% | > 1600 nM | > 1600 nM | 0*% | 0*% |  | Oc1ccc(CN2CCN(c3ccc(F)cc3F)CC2)c2cccnc12 [Compound 62, 5-((4-(2,4-difluorophenyl)piperazin-1-yl)methyl)quinolin-8-ol] | > 1600 nM | > 1600 nM |  |  | > 1600 nM |  |  | > 1600 nM |  |  |  |  | 
4 | 1.2% |  | > 3200 nM | > 3200 nM |  | 0*% | showed no activity across the board | COc1ccc2[nH]cc(C(=O)N3CCOCC3)c2c1 [Compound 63, (5-methoxy-1H-indol-3-yl)(morpholino)methanone] | > 3200 nM | > 3200 nM | 0 | 1.19 | > 3200 nM | 1.3 | 4.3 | > 3200 nM |  |  |  |  | 
5 |  |  | > 1600 nM | > 1600 nM |  |  |  | COc1ccc2[nH]cc(C(=O)N3CCN(c4ccccc4OC)CC3)c2c1 [Compound 64, (5-methoxy-1H-indol-3-yl)(4-(2-methoxyphenyl)piperazin-1-yl)methanone] | > 1600 nM | > 1600 nM | 0 | 0 | > 1600 nM | 0 | 0 | > 1600 nM |  |  |  |  | 
6 |  |  | 680 nM | 380 nM and 410 nM |  |  | activity similar to A20-I max control | COc1ccccc1N1CCN(Cc2cc(I)c(O)c3ncccc23)CC1 [Compound 71, 7-iodo-5-((4-(2-methoxyphenyl)piperazin-1-yl)methyl)quinolin-8-ol] | 420 nM and 530 nM | 480 nM and 510 nM | 52.3 | 39.6 | 470 nM and 340 nM | 73.2 | 58.7 | 620 nM and 650 nM | exhibit strong IC50 values |  |  | fairly strong ability to disrupt some of the unsurmountable tetramer | able to inhibit a small amount of the EphrinB2-EphB2 unsurmountable tetramer

Row | Structure (SMILES) | EphB1 Inhibition Percent, Inhibition of Association ONLY (EphrinB2-EphB1) | EphB1 Inhibition Percent, Inhibition of Association-Dissociation (EphrinB2-EphB1) | IC50 (EphrinB2-EphB2 [1]; [4]) | IC50 (EphrinB2-EphB2 [1]; [5]) | EphB2 Inhibition Percent, Inhibition of Association ONLY (EphrinB2-EphB2 [2]) | EphB2 Inhibition Percent, Inhibition of Association-Dissociation (EphrinB2-EphB2 [2]) | inhibition of EphrinB2-EphB interactions (EphrinB2-EphB2 [2]) | IC50 (EphrinB2-EphB2 [1]; [3]) | IC50 (EphrinB2-EphB2 [1]; [6]) | inhibition at 3.2 µM (EphrinB2-EphB1; [7]) [%] | inhibition at 3.2 µM (EphrinB2-EphB1; [8]) [%] | IC50 (EphrinB2-EphB2 [1]; [9]) | inhibition at 3.2 µM (EphrinB2-EphB2 [2]; [7]) [%] | inhibition at 3.2 µM (EphrinB2-EphB2 [2]; [8]) [%] | IC50 (EphrinB2-EphB2 [1]; [10]) | tetramerization inhibitor activity (EphrinB2-EphB2 [1]) | disruption of unsurmountable tetramer (EphrinB2-EphB2 [1]) | IC50 (EphrinB2-EphB2 [1]; [11]) [nM] | disruption of unsurmountable tetramer (EphrinB2-EphB2 [1]; listed as 3511-1) | disruption of unsurmountable tetramer (EphrinB2-EphB2 [1]; listed as 3511-I)
7 | Oc1ccc(CN2CCN(c3ccc(Br)cn3)CC2)c2cccnc12 [Compound 33, 5-((4-(5-bromopyridin-2-yl)piperazin-1-yl)methyl)quinolin-8-ol] |  |  | > 3200 nM | 2190 nM |  |  |  | 2510 nM | 2240 nM | 58.6 | 46.4 | 1820 nM | 81.6 | 69.4 |  |  |  |  |  | 
8 | Oc1ccc(CN2CCN(Cc3ccc(Br)cc3)CC2)c2cccnc12 [Compound 42, 5-((4-(4-bromobenzyl)piperazin-1-yl)methyl)quinolin-8-ol] |  |  |  | 930 nM |  |  |  | 2510 nM | 1050 nM | 36.5 | 19.9 | 1020 nM | 56.3 | 37.8 | 1910 nM |  |  |  |  | 
9 | Oc1c(Br)cc(CN2CCN(Cc3ccc(Br)cc3)CC2)c2cccnc12 [Compound 44, 7-bromo-5-((4-(4-bromobenzyl)piperazin-1-yl)methyl)quinolin-8-ol] |  |  | > 3200 nM |  |  |  |  | > 3200 nM | 300 nM | 49.9 | 37.3 | 280 nM | 77.1 | 62.1 | 380 nM | appears promising |  |  |  | 
10 | Oc1ccc(CN2CCN(Cc3ccc(C(F)(F)F)cc3)CC2)c2cccnc12 [Compound 48, 5-((4-(4-(trifluoromethyl)benzyl)piperazin-1-yl)methyl)quinolin-8-ol] |  |  | > 1600 nM | > 1600 nM |  |  |  | > 1600 nM | > 1600 nM | 19.8 | 2.6 | > 1600 nM | 46.2 | 21.3 | > 1600 nM |  |  |  |  | 
11 | O=C(Cc1ccccc1)Nc1ccc(N2CCN(Cc3ccc(O)c4ncccc34)CC2)cc1 [Compound 51, N-(4-(4-((8-hydroxyquinolin-5-yl)methyl)piperazin-1-yl)phenyl)-2-phenylacetamide] |  |  | 1450 nM | 1020 nM |  |  |  | 1510 nM | 930 nM | 61.2 | 52.7 | 980 nM | 78.8 | 64.8 | 1290 nM |  | able to inhibit a small amount of the EphrinB2-EphB2 unsurmountable tetramer | ~1200 |  | 
12 | COc1ccccc1N1CCN(Cc2cc(Br)c(O)c3ncccc23)CC1 [Compound 70, 7-bromo-5-((4-(2-methoxyphenyl)piperazin-1-yl)methyl)quinolin-8-ol] |  |  | 1200 nM | 170 nM |  |  |  | > 1600 nM | 190 nM | 58.8 | 47.2 | 180 nM | 73 | 53.4 | 360 nM |  |  | ~200 |  | 
